The data set can be described thus: Absorption of aqueous solution after dissolving powder in water (riboflavin coloration/release). Format: physicochemical. The settings on record: powder containing 10 mg riboflavin in 1000 ml water for 15 min; measured at 545 nm, spectrophotometer. As for the experimental part: 20 mg of coated powder (containing 10 mg of Riboflavin) was dissolved in 1000 ml water for 15 min. Absorption of the solution was measured at 545 nm using a spectrophotometer (Genesys 20, thermo Scientific). Absorption of the solution was 0.065.
10 mg of riboflavin powder was dissolved in 1000 ml water for 15 min. Absorption of the solution was measured at 545 nm using a spectrophotometer (Genesys 20, thermo Scientific). Absorption of the solution was 0.386.
16.6 mg of coated powder (containing 10 mg of Riboflavin) was dissolved in 1000 ml water for 15 min. Absorption of the solution was measured at 545 nm using a spectrophotometer (Genesys 20, thermo Scientific). Absorption of the solution was 0.087.

SMILES strings stand for the structures.

Regarding `Cc1cc2nc3c(=O)[nH]c(=O)nc-3n(C[C@H](O)[C@H](O)[C@H](O)CO)c2cc1C` [Comparison Example 2, riboflavin], the “Absorption of the solution” value stood at 0.386.

The values above are taken from patent US11607420B2, “Formulation” (DSM IP ASSETS B.V., priority 2018, dated 2023).
